Publication PMC4579641 (BMC Complementary and Alternative Medicine, 2015)
Values after ≈ are worked out from the molar mass of the structure shown. Like-named read-outs stand apart in the source and are kept apart here.

Columns and labels:
[1] = system: Mycobacterium tuberculosis H37Rv; assay: Minimum Inhibitory Concentration by the Alamar Blue technique, M. tuberculosis; format: cell-based; details: for MIC: Mycobacterium tuberculosis, 168 h, read-out: Antimycobacterial activity, M. tuberculosis MIC
Mycobacterium bovis AN5 = assay: microbe, parasite or virus in culture; format: cell-based; details: for MIC: Mycobacterium tuberculosis variant bovis, AN5, 168 h, read-out: Antimycobacterial activity, M. bovis MIC; for Antimycobacterial activity, M. bovis MIC: AN5 strain, Alamar Blue, 7 days incubation, average and standard deviation of triplicate assays
[2] = system: J774A mouse monocyte macrophage cell line; assay: Cytotoxic activity on macrophages, alamar blue; format: cell-based; details: J774A CC50 versus mycobacterial MIC
Procedure: (§1) The J774A mouse monocyte macrophage cell line was grown in RPMI medium (Sigma, R0883) supplemented with 10 % heat inactivated fetal bovine serum (FBS, Sigma-Aldrich), 1 % MEM-NEAA medium (Gibco, 11140–050) and a mixture of penicillin-streptomycin to 1 %. The cell culture was maintained at 37 °C with a partial atmosphere of 5 % CO2, the evaluations were carried out when 80–90 % confluence was reached.
(§2) In a 96 well plate 50,000 cells per well were deposited in a final volume of 100 μL, and incubated for 24 h at 37 °C in partial CO2 atmosphere to promote cell adhesion for an approximate 80 % confluence. Chemical compounds to be analyzed were diluted in DMSO; cytotoxic activity was evaluated by adding twofold serial dilutions of the compound to be analyzed, starting at a 1600 μg/mL concentration; the plates were further incubated (24 h). For cytotoxic evaluation, alamar blue (Sigma, R7017) solution was added (10 % v/v) and after 3 h, results were evaluated by determination of the change in color using a fluorimeter (590 nm). For negative control, cells were incubated with 500 μg/mL concentration of DMSO (Sigma, 472301), which was the highest concentration. Cytotoxic concentration (CC50) was determined using probit non-linear regression.

[3] = Cytotoxic activity on macrophages, alamar blue; format: cell-based, mouse; details: mouse, J774A monocyte macrophage cell line; J774 macrophages, 24 h; average and standard deviation of three assays
Procedure: as §1, §2

M. tuberculosis = system: M. tuberculosis; set-up: method as in PMID 17924309; details: cited from earlier work
[4] = H37Rv strain, Alamar Blue, 7 days incubation, average and standard deviation of triplicate assays

C=C1CC/C=C(\C)CC[C@@H]2[C@@H]1CC2(C)C [β-Caryophyllene]
MIC [1, 4]: 100 µg/mL (≈ 489 µM)
MIC (Mycobacterium bovis AN5): 100 µg/mL (≈ 489 µM)

C=C(C)[C@H]1CC=C(C)CC1 [(+) Limonene]
MIC [1, 4]: 25 µg/mL (≈ 184 µM)
MIC (Mycobacterium bovis AN5): 41.7 ± 14.4 µg/mL (≈ 306 µM)

CC1=CC=C(C(C)C)CC1 [α-Terpinene]
MIC [1, 4]: 10.4 ± 3.61 µg/mL (≈ 76.4 µM)
MIC (Mycobacterium bovis AN5): 20.8 ± 7.22 µg/mL (≈ 153 µM)

C=CC(=C)CCC=C(C)C [Myrcene]
Antimycobacterial activity, M. tuberculosis MIC [1, 4]: 25.00 ± 0.00^CDEF μg/mL
MIC [1, 4]: 25 µg/mL (≈ 184 µM)
MIC (Mycobacterium bovis AN5): 33.3 ± 14.4 µg/mL (≈ 245 µM)

Cc1ccc(C(C)C)c(O)c1 [Thymol]
Antimycobacterial activity, M. tuberculosis MIC [1, 4]: 0.78 ± 0.01^G μg/mL
MIC [1, 4]: 0.78 µg/mL (≈ 5.19 µM)
CC50 concentration higher than the concentration needed for mycobacterial elimination [2]: approximately 500 fold
CC50 at 24 h [3]: 483 ± 28.9 µg/mL (≈ 3220 µM)
CC90 at 24 h [3]: 1130 ± 115 µg/mL (≈ 7540 µM)
Antimycobacterial activity, M. bovis MIC (Mycobacterium bovis AN5): 2.02 ± 0.88^E μg/mL
MIC (Mycobacterium bovis AN5): 2.02 µg/mL (≈ 13.4 µM)

C/C=C/c1ccc(OC)cc1 [t-Anethole]
MIC [1, 4]: 20.8 ± 7.22 µg/mL (≈ 141 µM)
MIC (Mycobacterium bovis AN5): 58.3 ± 14.4 µg/mL (≈ 394 µM)

O=C/C=C/c1ccccc1 [Cinnamaldehyde]
Antimycobacterial activity, M. tuberculosis MIC [1, 4]: 3.12 ± 0.00^EFG μg/mL
MIC [1, 4]: 3.12 µg/mL (≈ 23.6 µM)
Antimycobacterial activity, M. bovis MIC (Mycobacterium bovis AN5): 12.50 ± 0.00^DE μg/mL
MIC (Mycobacterium bovis AN5): 12.5 µg/mL (≈ 94.6 µM)

CC1=CCC2C(C1)C2(C)C (centres unmarked) [3-Carene]
MIC [1, 4]: 16.7 ± 7.22 µg/mL (≈ 122 µM)
MIC (Mycobacterium bovis AN5): 33.3 ± 14.4 µg/mL (≈ 245 µM)

C=C(C)[C@@H]1CC=C(C)C(=O)C1 [(+) Carvone]
MIC [1, 4]: 20.8 ± 7.22 µg/mL (≈ 139 µM)
MIC (Mycobacterium bovis AN5): 41.3 ± 15 µg/mL (≈ 275 µM)

CC1=CCC(=C(C)C)CC1 [Terpinolene]
MIC [1, 4]: 8.33 ± 3.61 µg/mL (≈ 61.1 µM)
MIC (Mycobacterium bovis AN5): 33.3 ± 14.4 µg/mL (≈ 245 µM)

Cc1ccc(C(C)C)cc1 [p-Cymene]
MIC [1, 4]: 91.7 ± 14.4 µg/mL (≈ 683 µM)
CC50 at 24 h [3]: 1170 ± 44.3 µg/mL (≈ 8690 µM)
CC90 at 24 h [3]: 2200 ± 86.6 µg/mL (≈ 16400 µM)
MIC (Mycobacterium bovis AN5): 91.7 ± 14.4 µg/mL (≈ 683 µM)

CC(C)c1ccc(C=O)cc1 [Cuminaldehyde]
MIC [1, 4]: 10.4 ± 3.61 µg/mL (≈ 70.2 µM)
MIC (Mycobacterium bovis AN5): 20.8 ± 7.22 µg/mL (≈ 141 µM)

CC12CCC(CC1=O)C2(C)C (centres unmarked) [Camphor]
MIC [1, 4]: 41.7 ± 14.4 µg/mL (≈ 274 µM)
MIC (Mycobacterium bovis AN5): 50 µg/mL (≈ 328 µM)

CC(C)=CCC/C(C)=C/CO [Geraniol]
Antimycobacterial activity, M. tuberculosis MIC [1, 4]: 12.50 ± 0.00^EFG μg/mL
MIC [1, 4]: 12.5 µg/mL (≈ 81 µM)
MIC (Mycobacterium bovis AN5): 12.5 µg/mL (≈ 81 µM)

C=C1CCC2(C(C)C)CC12 (centres unmarked) [Sabinene]
MIC [1, 4]: 33.3 ± 14.4 µg/mL (≈ 245 µM)
MIC (Mycobacterium bovis AN5): 25 µg/mL (≈ 184 µM)

CC12CCC(CC1)C(C)(C)O2 [Eucalyptol]
MIC [1, 4]: 41.7 ± 14.4 µg/mL (≈ 270 µM)
MIC (Mycobacterium bovis AN5): 41.7 ± 14.4 µg/mL (≈ 270 µM)

C=CC(C)(O)CCC=C(C)C (centres unmarked) [Linalool]
MIC [1, 4]: 33.3 ± 14.4 µg/mL (≈ 216 µM)
MIC (Mycobacterium bovis AN5): 41.7 ± 14.4 µg/mL (≈ 270 µM)

CO[C@H]1/C=C/O[C@@]2(C)Oc3c(C)c(O)c4c(O)c(c(/C=N/N5CCN(C)CC5)c(O)c4c3C2=O)NC(=O)/C(C)=C\C=C\[C@H](C)[C@H](O)[C@@H](C)[C@@H](O)[C@@H](C)[C@H](OC(C)=O)[C@@H]1C [Rifampicin, reference compound]
MIC [1, 4]: 0.6 ± 0.14 µg/mL (≈ 0.729 µM)
MIC (Mycobacterium bovis AN5): 0.5 ± 0.01 µg/mL (≈ 0.608 µM)

C=CCc1ccc(OC)cc1 [Estragole]
MIC [1, 4]: 20.8 ± 7.22 µg/mL (≈ 141 µM)
MIC (Mycobacterium bovis AN5): 25 µg/mL (≈ 169 µM)

CC1CCC(C(C)C)C(O)C1 (centres unmarked) [Menthol]
MIC [1, 4]: 41.7 ± 14.4 µg/mL (≈ 267 µM)
CC50 at 24 h [3]: 1450 ± 180 µg/mL (≈ 9280 µM)
CC90 at 24 h [3]: 2600 ± 304 µg/mL (≈ 16600 µM)
MIC (Mycobacterium bovis AN5): 83.3 ± 14.4 µg/mL (≈ 533 µM)

C=CCc1ccc(O)c(OC)c1 [Eugenol]
MIC [1, 4]: 25 µg/mL (≈ 152 µM)
MIC (Mycobacterium bovis AN5): 20.8 ± 7.22 µg/mL (≈ 127 µM)

C=C1CCC2CC1C2(C)C (stereo not drawn) [β-pinene]
MIC [1, 4]: 10.4 ± 3.61 µg/mL (≈ 76.4 µM)
MIC (Mycobacterium bovis AN5): 41.7 ± 14.4 µg/mL (≈ 306 µM)

CC(=O)OC/C=C(\C)CC/C=C(\C)CC/C=C(\C)CCC=C(C)C [geranylgeranyl acetate]
MIC against M. tuberculosis (M. tuberculosis): 3.13 µg/mL

CC(C)=CCCC(C)CCO (stereo not drawn) [β-Citronellol]
Antimycobacterial activity, M. tuberculosis MIC [1, 4]: 6.25 ± 0.00^FG μg/mL
MIC [1, 4]: 6.25 µg/mL (≈ 40 µM)
MIC (Mycobacterium bovis AN5): 10.4 ± 3.61 µg/mL (≈ 66.6 µM)

Cc1ccc(C(C)C)cc1O [Carvacrol]
Antimycobacterial activity, M. tuberculosis MIC [1, 4]: 2.02 ± 0.88^FG μg/mL
MIC [1, 4]: 2.02 µg/mL (≈ 13.4 µM)
CC50 concentration higher than the concentration needed for mycobacterial elimination [2]: approximately 500 fold
CC50 at 24 h [3]: 900 ± 86.6 µg/mL (≈ 5990 µM)
CC90 at 24 h [3]: 1950 ± 107 µg/mL (≈ 13000 µM)
Antimycobacterial activity, M. bovis MIC (Mycobacterium bovis AN5): 5.20 ± 1.81^DE μg/mL
MIC (Mycobacterium bovis AN5): 5.2 µg/mL (≈ 34.6 µM)

NNC(=O)c1ccncc1 [Isoniazid, reference compound]
MIC ([1]; H37RV): 0.26 ± 0.01 µg/mL (≈ 1.9 µM)
MIC (Mycobacterium bovis AN5): 0.16 ± 0.3 µg/mL (≈ 1.17 µM)

O=C(O)/C=C/c1ccccc1 [Cinnamic Acid]
Antimycobacterial activity, M. tuberculosis MIC [1, 4]: 8.16 ± 3.32^FG μg/mL
MIC [1, 4]: 8.16 µg/mL (≈ 55.1 µM)
Antimycobacterial activity, M. bovis MIC (Mycobacterium bovis AN5): 7.29 ± 4.73^DE μg/mL
MIC (Mycobacterium bovis AN5): 7.29 µg/mL (≈ 49.2 µM)

COc1ccc(C=O)cc1 [p-Anisaldehyde]
MIC [1, 4]: 4.16 ± 1.81 µg/mL (≈ 30.6 µM)
MIC (Mycobacterium bovis AN5): 10.4 ± 3.61 µg/mL (≈ 76.5 µM)

CC(C)=CCC/C(C)=C/CC/C(C)=C/CC/C(C)=C/CO [Geranylgeraniol]
MIC against M. tuberculosis (M. tuberculosis): 1.56 µg/mL (≈ 5.37 µM)
